Data from patent US9643982B2, “Fused tricyclic heterocyclic compounds as HIV integrase inhibitors” (Merck Sharp & Dohme Corp., priority 2013, dated 2017).
Where two headings read alike, the source gives them in different places.

Tested on: HIV-1 (NL4-3 strain)
Assay: Multiple round HIV-1 infection assay in MT4-GFP cells (Wild Type Cell Assay)
Assay type: cell-based
Conditions: Human immunodeficiency virus 1, NL43, MT4-GFP cells infected with HIV-1 NL4-3, read-out: Wild Type Cell Assay IP
Description: HIV-1 replication was monitored using MT4-gag-GFP clone D3 (hereafter designate MT4-GFP), which are MT-4 cells modified to harbor a GFP reporter gene, the expression of which is dependent on the HIV-1 expressed proteins tat and rev. Productive infection of an MT4-GFP cell with HIV-1 results in GFP expression approximately 24 h post-infection.
MT4-GFP cells were maintained at 37° C./5% CO2/90% relative humidity in RPMI 1640 supplemented with 10% fetal bovine serum, 100 U/ml penicillin/streptomycin, and 400 μg/ml G418 to maintain the reporter gene. For infections, MT4-GFP cells were placed in the same medium lacking G418 and infected overnight with HIV-1 (NL4-3 strain) virus at an approximate multiplicity of infection of 0.01 in the same incubation conditions.
Cells were then washed and resuspended in either RPMI 1640 supplemented with 10% normal human serum (NHS) or without NHS at 1.6×10^5 cells/mL (10% NHS or serum-free conditions) or in 100% normal human serum at 2×10^5 cells/mL (100% NHS conditions). Compound plates were prepared by dispensing compounds dissolved in DMSO into wells of 384 well poly D lysine-coated plates (0.2 μl/well) using an ECHO acoustic dispenser. Each compound was tested in a 10 point serial 3-fold dilution (typical final concentrations: 8.4 μM-0.42 nM). Controls included no inhibitor (DMSO only) and a combination of three antiviral agents (efavirenz, indinavir, and the integrase strand transfer inhibitor L-002254051 at final concentrations of 4 μM each). Cells were added (50 μL/well) to compound plates and the infected cells were maintained at 37° C./5% CO2/90% relative humidity.

| SMILES | EC50 (0 % NHS (serum-free)) [nM] | EC50 (10 % NHS (normal human serum)) [nM] |
| --- | --- | --- |
| CC(C)N1CC2COCc3c(-c4cnn(Cc5ccc(F)cc5F)c4)c(=O)c(O)c(n32)C1=O (racemic) [Compound 14] | 323 | – |
| CC(C)N1CC2C(=O)N(C)Cc3c(C(=O)NCc4ccc(F)cc4F)c(=O)c(O)c(n32)C1=O (racemic) [Compound 16, N-(2,4-difluorobenzyl)-9-hydroxy-2-isopropyl-5-methyl-1,4,8-trioxo-1,2,3,3a,4,5,6,8-octahydro-2,3a1,5-triazaphenalene-7-carboxamide] | 17 | – |
| CCN1CC2CC(C)c3c(C(=O)NCc4ccc(F)c(F)c4F)c(=O)c(O)c(n32)C1=O (single isomer, unassigned) [Compound 37] | 1.1 | – |
| CC(C)N1CC2COCc3c(C(=O)NCc4ccc(F)c(Cl)c4)c(=O)c(O)c(n32)C1=O (racemic) [Compound 10] | – | 100 |
| COCCC(C)N1CC2COCc3c(C(=O)NCc4ccc(F)cc4F)c(=O)c(O)c(n32)C1=O (centres unmarked) [Compound 6] | 24 | – |
| CCN1C(=O)c2c(O)c(=O)c(C(=O)NCc3ccc(F)c(Cl)c3)c3n2[C@@H](CC3)[C@H]1OC (single isomer, unassigned) [Compound 26] | 3.2 | – |
| CC(C)N1C[C@@H]2COCc3c(C(=O)NCc4ccc(F)cc4F)c(=O)c(O)c(n32)C1=O (single isomer, unassigned) [Compound 3] | 13 | – |
| CCN1CC2CC(OC)c3c(C(=O)NCc4ccc(F)cc4F)c(=O)c(O)c(n32)C1=O (racemic) [Compound 29] | 1.2 | – |
| CC(C)N1CC2COCc3c(C(=O)NCc4ccc(F)c(Cl)c4F)c(=O)c(O)c(n32)C1=O (racemic) [Compound 12] | – | 50 |
| O=C(NCc1ccc(F)cc1F)c1c2n3c(c(O)c1=O)C(=O)N(Cc1cccnc1)CC3COC2 (racemic) [Compound 7] | 9.6 | – |
| CC(C)N1CC2COCc3c(C(=O)NCc4ccc(F)cc4F)c(=O)c(O)c(n32)C1=O (racemic) [Compound 2] | – | 33 |
| CC(C)N1C[C@@H]2COCc3c(-c4cnn(Cc5ccc(F)cc5F)c4)c(=O)c(O)c(n32)C1=O (single isomer, unassigned) [Compound 15] | 234 | – |
| COCCN1CC2CCc3c(C(=O)NCc4c(F)cc(F)cc4OC)c(=O)c(O)c(n32)C1=O (racemic) [Compound 19] | 4.4 | – |
| CCO[C@@H]1C[C@H]2CN(CC)C(=O)c3c(O)c(=O)c(C(=O)NCc4ccc(F)cc4F)c1n32 (single isomer, unassigned) [Compound 38] | 1.9 | – |
| CC(C)N1C[C@@H]2COCc3c(-c4nnc(Cc5ccc(F)cc5F)s4)c(=O)c(O)c(n32)C1=O (single isomer, unassigned) [Compound 13, 9-(5-(2,4-difluorobenzyl)-1,3,4-thiadiazol-2-yl)-7-hydroxy-5-isopropyl-3,3a,4,5-tetrahydro-1H-2-oxa-3a1,5-diazaphenalene-6,8-dione] | 5 | – |
| CN1CC2COCc3c(C(=O)NCc4ccc(F)cc4F)c(=O)c(O)c(n32)C1=O (racemic) [Compound 1] | 9.2 | – |
| CNC(=O)c1c2n3c(c(O)c1=O)C(=O)N(Cc1ccc(F)cc1)CC3CC2 (racemic) [Compound 17, 2-(4-fluorobenzyl)-8-hydroxy-N-methyl-1,7-dioxo-2,3,3a,4,5,7-hexahydro-1H-pyrazino[2,1,6-cd]indolizine-6-carboxamide] | 35 | – |
| CCO[C@H]1[C@H]2CCc3c(C(=O)NCc4ccc(F)cc4F)c(=O)c(O)c(n32)C(=O)N1CC (single isomer, unassigned) [Compound 28] | 2.1 | – |
| CCN1CC2CC(C)c3c(C(=O)NCc4ccc(F)cc4F)c(=O)c(O)c(n32)C1=O (single isomer, unassigned) [Compound 35, N-(2,4-difluorobenzyl)-2-ethyl-9-hydroxy-6-methyl-1,8-dioxo-2,3,3a,5,6,8-hexahydro-1H-pyrazino[2,1,6-cd]indolizine-7-carboxamide] | 1.2 | – |

| SMILES | EC50 (0 % NHS (serum-free)) [nM] | EC50 (10 % NHS (normal human serum)) [nM] |
| --- | --- | --- |
| O=C(NCc1ccc(F)c(F)c1F)c1c2n3c(c(O)c1=O)C(=O)N(CC1CC1)C[C@H]3CC2 (single isomer, unassigned) [Compound 21] | 3.1 | – |
| CCN1CC2CCc3c(C(=O)NCc4ccc(F)cc4F)c(=O)c(O)c(n32)C1=O (racemic) [Compound 18, N-(2,4-difluorobenzyl)-2-ethyl-8-hydroxy-1,7-dioxo-2,3,3a,4,5,7-hexahydro-1H-pyrazino[2,1,6-cd]indolizine-6-carboxamide] | 2.6 | – |
| CCN1C[C@@H]2C[C@@H](OC)c3c(C(=O)NCc4ccc(F)cc4F)c(=O)c(O)c(n32)C1=O (single isomer, unassigned) [Compound 30] | 1 | – |
| COCCN1CC2COCc3c(C(=O)NCc4ccc(F)cc4F)c(=O)c(O)c(n32)C1=O (racemic) [Compound 5] | 9.2 | – |
| CCN1C(=O)c2c(O)c(=O)c(C(=O)NCc3ccc(F)cc3F)c3n2C(CC3)C1OC (racemic) [Compound 25] | 1.9 | – |
| COc1ccc(CN2CC3COCc4c(C(=O)NCc5ccc(F)cc5F)c(=O)c(O)c(n43)C2=O)cc1 (racemic) [Compound 8] | 23 | – |
| COCCN1CC2CC(C)c3c(C(=O)NCc4ccc(F)cc4F)c(=O)c(O)c(n32)C1=O (single isomer, unassigned) [Compound 36] | 3.9 | – |
| COCCN1C[C@H]2C[C@H](OC)c3c(C(=O)NCc4ccc(F)cc4F)c(=O)c(O)c(n32)C1=O (single isomer, unassigned) [Compound 32] | 2.3 | – |
| CC(C)CN1CC2COCc3c(C(=O)NCc4ccc(F)cc4F)c(=O)c(O)c(n32)C1=O (racemic) [Compound 4] | – | 21 |
| O=C(NCc1ccc(F)cc1F)c1c2n3c(c(O)c1=O)C(=O)N(CCC(F)(F)F)C[C@@H]3CC2 (single isomer, unassigned) [Compound 20] | 3.8 | – |
| CC(C)N1C[C@@H]2COCc3c(C(=O)NCc4ccc(F)c(F)c4F)c(=O)c(O)c(n32)C1=O (single isomer, unassigned) [Compound 9] | – | 20 |
| CO[C@@H]1C[C@H]2CN(CC3CC3)C(=O)c3c(O)c(=O)c(C(=O)NCc4ccc(F)cc4F)c1n32 (single isomer, unassigned) [Compound 33] | 2.3 | – |
| CC(C)(O)CN1C[C@@H]2CCc3c(C(=O)NCc4ccc(F)c(F)c4F)c(=O)c(O)c(n32)C1=O (single isomer, unassigned) [Compound 23] | 3.8 | – |
| CCN1C[C@@H]2C[C@@H](OC)c3c(C(=O)NCc4ccc(F)c(Cl)c4F)c(=O)c(O)c(n32)C1=O (single isomer, unassigned) [Compound 34] | 2.9 | – |
| CCN1C[C@H]2C[C@@H](OC)c3c(C(=O)NCc4ccc(F)cc4F)c(=O)c(O)c(n32)C1=O (single isomer, unassigned) [Compound 31] | 3.8 | – |
| Cc1c(F)ccc(CNC(=O)c2c3n4c(c(O)c2=O)C(=O)N(C(C)C)CC4COC3)c1F (racemic) [Compound 11] | – | 116 |
| CCN1CC2CC(O)c3c(C(=O)NCc4ccc(F)cc4F)c(=O)c(O)c(n32)C1=O (racemic) [Compound 24, N-(2,4-difluorobenzyl)-2-ethyl-5,8-dihydroxy-1,7-dioxo-2,3,3a,4,5,7-hexahydro-1H-pyrazino[2,1,6-cd]indolizine-6-carboxamide] | 2.2 | – |
| COCCN1C(=O)c2c(O)c(=O)c(C(=O)NCc3ccc(F)cc3F)c3n2[C@H](CC3)[C@@H]1OC (single isomer, unassigned) [Compound 27] | 2.3 | – |
| CO[C@H](C)CN1C[C@H]2CCc3c(C(=O)NCc4ccc(F)cc4F)c(=O)c(O)c(n32)C1=O (single isomer, unassigned) [Compound 22] | 2.8 | – |
